Data taken from EP0603240B1, “SAFENING HERBICIDAL PYRAZOLYLSULFONYLUREAS” (priority 1991, dated 1993).

Experiments:
corn [1] = assay: Example 12, Procedure II: Herbicide No. 1 + acetochlor (No. 6) with thirteen antidotes; type: in vivo
Method: (§1) Containers were filled and compacted with a fumigated silt loam top soil to a depth of about 1.3 cm from the top of the container. A first container was designated as an untreated control, a second container was designated as a herbicide control, and a third container was designated as a herbicide + antidote test container. Each of the containers was seeded with a crop species. A measured amount of herbicide dispersed or dissolved in acetone was applied to a measured quantity of soil. To this same quantity of soil treated with herbicide, there was added a measured amount of antidote dispersed or dissolved in acetone. The quantity of soil treated with the herbicide and antidote was thoroughly mixed to incorporate the herbicide and antidote in the soil uniformly. The seed bed in the third container of soil was covered with the soil treated with the herbicide and antidote and the container was leveled. For each test series, the seed beds of the first and second containers were likewise covered by soil layers. the cover layer of the first container was not treated with herbicide or antidote.
(§2) The containers were then placed on a bench in a greenhouse and sub-irrigated as required for the duration of the test. […] Plant response is measured in terms of percent injury. Antidote efficacy is indicated as the difference in plant injury by the herbicide(s) without the antidote and with the antidote.
(§3) This procedure is the same as Procedure I, but modified in the manner that after incorporation of the chemicals (herbicide and antidote) the containers with the covered seedbed were treated with an initial overhead irrigation equivalent to 0.6 cm rainfall, then subsequently sub-irrigated as required on greenhouse benches.
This example was designed to investigate the efficacy of thirteen different antidotes from different classes of chemistry as safeners against compositions of Herbicide No. 1 and acetochlor (Herbicide No. 6) as co-herbicide. Acetochlor is the active ingredient in the commercial herbicides GUARDIAN® and WENNER®.
The test procedure used in this example was Procedure II described above.

corn [2] = assay: Example 25, greenhouse preemergence test: Antidote Nos. 1 and 2 against Herbicide Nos. 1-3; type: in vivo, Corn (Pioneer 3424 variety); conditions: preemergence
Method: The chemicals were tested in both preemergence and post-emergence modes of application. The herbicides were prepared and applied as wettable powders; dichlormid was applied as an emulsifiable concentrate, while the naphthalic anhydride was applied as a coating on the corn seed prior to planting.
(§4) Test data from the preemergence tests are shown in Table 25A and from the post-emergence tests in Table 25B. In the tables, the concentration of chemicals is shown in terms of active ingredient in grams per hectare (G/ha); concentrations of the naphthalic anhydride were not measured per se, but were present as in conventional, normally-coated applications. Corn injury is shown in terms of percent inhibition of growth.

corn [3] = assay: Example 25, greenhouse post-emergence test: Antidote Nos. 1 and 2 against Herbicide Nos. 1-3; type: in vivo, Corn (Pioneer 3424 variety); conditions: Herbicide Nos. 1-3
Method: Additional tests were conducted in the greenhouse in order to evaluate the antidotal efficacy of Antidote Nos. 1 (dichlormid) and 2 (naphthalic anhydride) in protecting corn from the herbicidal activity of Herbicide Nos. 1-3 (i.e., NC-319, NC-319 EX and NC-311, respectively). The chemicals were tested in both preemergence and post-emergence modes of application. The herbicides were prepared and applied as wettable powders; dichlormid was applied as an emulsifiable concentrate, while the naphthalic anhydride was applied as a coating on the corn seed prior to planting.
Corn seeds (Pioneer 3424 variety) were planted in alluvial soil containing compost and fertilizer in pots 12 cm. in diameter. Test chemicals were applied with a spray gun at the spray volume rate of 11.2 l/ha at the time of seeding in the preemergence tests and seven (7) days after seeding in the post-emergence tests, when the check (control) plants were at the 16-20 cm., 3.0-3.2 leaf stage, and naphthalic anhydride coated seed grown plants were at the 14-16 cm., 2.8-3.0 leaf stage.
as §4

corn [4] = assay: Example 15, Procedure II: Herbicide No. 1 + butylate (No. 10) with antidotes; type: in vivo; conditions: for safening of corn, assessment in words: Herbicide No. 1 1.12 and 0.56 kg/ha + Herbicide No. 10 6.72 kg/ha PPI, Table 15
Method: as §1, §2, §3
This example describes experiments designed to investigate the antidotal efficacy of a plurality of antidotes against the herbicidal action of a combination of Herbicide No. 1 and butylate in corn and the prevalent weeds barnyardgrass and velvetleaf. The antidotes used in these experiments were Nos. 1-10, 12, 13 and 15.
The test procedure used in these experiments was that of Procedure II described above. The antidotes were applied to a soil cover layer by pipet after spraying the herbicides onto the soil, followed by incorporation and overhead irrigation.

corn [5] = assay: Example 11, Procedure II: Herbicide No. 1 + metazachlor (No. 14) with antidotes; type: in vivo; conditions: for safening of corn, assessment in words: Herbicides 1 and 14, Table 11
Method: as §1, §2, §3
(§5) In this example, yet another α-chloroacetanilide co-herbicide, metazachlor (Herbicide No. 14) was combined with Herbicide No. 1 for investigation of the effect of various safeners on that composition. Metazachlor is the active ingredient in the commercial herbicide BUTISAN® S, used here as a 500 g/L formulation.

[6] = test system: barnyardgrass (Echinochloa crusgalli); assay: as above; type: in vivo; conditions: Herbicide No.14 3.36 kg/ha alone, no antidote
Method: as §1, §2, §3
(§6) In the series of greenhouse tests described below, for routine screening purposes the herbicide/antidote compositions were tested in crop/weed combinations involving corn as the crop and either or both of the weeds barnyardgrass (Echinochloa crusgalli), a monocotyledonous weed, and velvetleaf (Abutilon theophrasti), a dicotyledonous weed. In the tables below, these weeds are indicated by the symbols "BYG" and "VL", respectively.
as §5

[7] = test system: velvetleaf (Abutilon theophrasti); assay: as above; type: in vivo; conditions: Herbicide No.14 3.36 kg/ha alone, no antidote
Method: as §1, §2, §3, §6, §5

corn [8] = assay: Example 6, Procedure II: Herbicide No. 1 + alachlor (No. 7) with antidotes; type: in vivo; conditions: Herbicides 1 and 7 applied PPI, Table 6
Method: as §1, §2, §3
This example was designed to investigate the antidotal efficacy of a plurality of antidotal compounds against a composition comprising Herbicide No. 1 in combination with Herbicide No. 7 (alachlor). The antidotal compounds used herein were Nos. 1, 2, 7, 13 and 15.
(§7) In this example, Procedure II described above was followed. The data from the tests in this example is shown in Table 6 and represents averages of duplicate replications.

corn [9] = assay: Example 19, Procedure II: Herbicide No. 1 + ERADICANE EXTRA with added antidotes; type: in vivo; conditions: for corn injury: Herbicide No. 1 + ERADICANE EXTRA + added antidote, highest rates of antidotes and herbicides
Method: as §1, §2, §3
(§8) In the test reported in this example, the herbicidal composition was similar to that used in Example 16 in that Herbicide No. 1 was combined with EPTC (Herbicide No. 4) as a co-herbicide and the antidotes included Nos. 1, 2, 7, 13 and 15. However, in this test the EPTC was introduced as a formulation of ERADICANE (EPTC + the antidote R-25788, i.e., Antidote No. 1) at an application rate of 8.96 kg/ha. Thus, in this test two antidotes were present, viz. R-25788 and one of the auxilliary antidotes, No. 2, 13 and 15.
The test reported in this example was performed in the same manner and with the same antidotes used in Example 18, the only difference being the substitution of the commercial herbicidal product ERADICANE® EXTRA for ERADICANE®. ERADICANE EXTRA is a formulation containing both an antidote, i.e., R-29148 (Antidote No. 5 herein), and an extender, dietholate.

corn [10] = assay: Example 10, Procedure II: Herbicide No. 1 + propachlor (No. 5) with antidotes; type: in vivo; conditions: Herbicide No.5 4.48 kg/ha alone, no antidote
Method: as §1, §2, §3
(§9) In this test, the safening effect of various antidotes on the herbicidal combination of Herbicide No. 1 and another α-chloroacetanilide co-herbicide, propachlor, (Herbicide No. 5) was investigated. Propachlor is the active ingredient in the commercial herbicide RAMROD®. Procedure II was also used in this test as in the preceding example.

[11] = test system: barnyardgrass (Echinochloa crusgalli); assay: as above; type: in vivo; conditions: Herbicide No.5 4.48 kg/ha alone, no antidote
Method: as §1, §2, §3, §6, §9

[12] = test system: velvetleaf (Abutilon theophrasti); assay: as above; type: in vivo; conditions: Herbicide No.5 4.48 kg/ha alone, no antidote
Method: as §1, §2, §3, §6, §9

corn [13] = assay: Example 9, Procedure II: Herbicide No. 1 + pretilachlor (No. 13) with antidotes; type: in vivo
Method: as §1, §2, §3
(§10) In this example the safening effect on a composition comprising Herbicide No. 1 and another leading rice herbicide, i.e., Herbicide No. 13, was investigated using the same antidotes and test procedure described in the preceding example. Herbicide No. 13 is pretilachlor, active ingredient used in the commercial rice herbicides RIFIT®, SOFIT® and SOFIT® SUPER.

[14] = test system: barnyardgrass (Echinochloa crusgalli); assay: as above; type: in vivo; conditions: Herbicide No.13 2.24 kg/ha alone, no antidote
Method: as §1, §2, §3, §6, §10

[15] = test system: velvetleaf (Abutilon theophrasti); assay: as above; type: in vivo; conditions: Herbicide No.13 2.24 kg/ha alone, no antidote
Method: as §1, §2, §3, §6, §10

corn [16] = assay: Example 5, Procedure I: Herbicide No. 1 + alachlor (No. 7) with Antidote Nos. 15 and 16; type: in vivo; conditions: Herbicide No.1 6.72 + No.7 2.24 kg/ha + antidote 2.24 kg/ha
Method: as §1, §2
This example describes tests with Antidote Nos. 15 and 16 to safen Herbicide No. 1 according to Procedure I using corn and the weeds barnyardgrass and velvetleaf as the test plants.
In the tests described in this example, the same procedure described in Example 4 was performed simultaneously therewith and under the same conditions, except that a co-herbicide, alachlor, was included in the same composition with Herbicide No. 1 and Antidote Nos. 15 and 16. Alachlor (Herbicide No. 7 herein) is the active ingredient in the commercial product LASSO® herbicide.

corn [17] = assay: Example 7, Procedure II: Herbicide No. 1 + metolachlor (No. 12) with antidotes; type: in vivo
Method: as §1, §2, §3, §7
The tests in this example followed the same procedure and antidotes used in Example 6. However, Herbicide No. 12 (metolachlor) was used as the co-herbicide with Herbicide No. 1.

corn [18] = assay: Example 18, Procedure II: Herbicide No. 1 + ERADICANE (EPTC + R-25788) with auxiliary antidotes; type: in vivo; conditions: Herbicide No. 1 + ERADICANE 8.96 kg/ha, PPI, Table 18
Method: as §1, §2, §3, §8
Test procedures were those of Procedure II above.

[19] = Herbicide No. 1:Herbicide 6:Antidote 0.14:2.24:2.24 kg/ha

O=C1OC(=O)c2cccc3cccc1c23 [Antidote No. 2, 1H, 3H-Naphtho [1,8-cd]pyran-1,3-dione]
safening of corn, assessment in words (corn [1]; Herbicide No. 1:Herbicide 6:Antidote 0.56:2.24:2.24 kg/ha): performed at commercial levels | safening of corn, assessment in words (corn [2]; Herbicide Nos. 1-3 at the two highest rates): significantly reduced corn injury | safening of corn, assessment in words (corn [3]): significantly reduced corn injury by Herbicides No. 1 and 3 at the highest rates of application, but not at lower rates

CCSC(=O)N(CC(C)C)CC(C)C [Herbicide No.10]
% Injury Corn (corn [4]; in vivo): 5%

Cc1cccc(C)c1N(Cn1cccn1)C(=O)CCl [Herbicide No.14]
% Injury Corn (corn [5]; Herbicide No.14 3.36 kg/ha alone, no antidote): 85% | % Injury BYG [6]: 100% | % Injury VL [7]: 65%

N#CC(=NOCC1OCCO1)c1ccccc1 [Antidote No. 6, Benzeneacetonitrile, α-{[(1,3-dioxolan-2-yl)methoxy]imino}-]
safening of corn, assessment in words (corn [1]; [19]): performed at commercial levels | safening of corn, assessment in words (corn [1]; Herbicide No. 1:Herbicide 6:Antidote 0.14:2.24:8.96 kg/ha): performed at commercial levels

CC1(C(Cl)Cl)OCCO1 [Antidote No. 13, 1,3-Dioxolane, 2-(dichloromethyl)-2-methyl-]
safening of corn, assessment in words (corn [8]): best safening effect across four treatments | safening of corn, assessment in words (corn [1]; [19]): performed at commercial levels | safening of corn, assessment in words (corn [4]): best safening effect at the highest rate | safening of corn, assessment in words (corn [9]; Herbicide No. 1 + ERADICANE EXTRA, Table 19): most efficacious antidote across all four treatments

CC(C)N(C(=O)CCl)c1ccccc1 [Herbicide No.5]
% Injury Corn (corn [10]): 0% | % Injury BYG [11]: 100% | % Injury VL [12]: 15%

CCCOCCN(C(=O)CCl)c1c(CC)cccc1CC [Herbicide No.13]
% Injury Corn (corn [13]; Herbicide No.13 2.24 kg/ha alone, no antidote): 0% | % Injury BYG [14]: 100% | % Injury VL [15]: 5%

C=CCN(CC=C)C(=O)C(Cl)Cl [Antidote No. 1, Acetamide, N,N-bis(2-propenyl)-α,α-dichloro]
% Injury Corn (corn [16]): 50% | safening of corn, assessment in words (corn [17]; Herbicide Nos. 1 and 12, Table 7): best safening effect across four treatments | safening of corn, assessment in words (corn [13]; Herbicide Nos. 1 and 13, Table 9): best safening effect across four treatments | safening of corn, assessment in words (corn [5]): outperformed the antidotes (2 and 13) of other chemistries | corn injury (corn [9]): 25% | inhibition at 7.41 g/ha (corn [2]; Zea mays, pre-emergence, Herbicide No. 3 0.25 G/ha + Antidote No. 1 7.41 G/ha, read-out: corn injury, percent inhibition of growth): 43% | safening of corn, assessment in words (corn [3]): did not exhibit noticeable safening effect

O=C(C(Cl)Cl)N1CCCCN(C(=O)C(Cl)Cl)CCC1 [Antidote No. 8, 1,5-Diazacyclononane, 1,5-bis(dichloroacetyl)-]
safening of corn, assessment in words (corn [4]): complete protection against corn injury

CC1c2ccccc2CCN1C(=O)C(Cl)Cl (stereo not drawn) [Antidote No. 12]
safening of corn, assessment in words (corn [4]): complete protection against corn injury

O=C(C(Cl)Cl)N1CCOC12CCCCC2 [Antidote No. 7, 1-Oxa-4-azaspiro[4,5]decane, 4-(dichloroacetyl)-]
% Injury Corn (corn [17]; Herbicide No.1 0.56 + No.12 3.36 kg/ha + antidote 2.24 kg/ha): 20% | safening of corn, assessment in words (corn [5]): outperformed the antidotes (2 and 13) of other chemistries | safening of corn, assessment in words (corn [4]): complete protection against corn injury | corn injury, assessment in words (corn [18]): slightly lower | corn injury (corn [9]): 25%
